Test results published in the NIST ThermoML archive (doi:10.1021/je7002836).

Tests used:
[1] = 101 kPa, Liquid
[2] = molar heat capacity at constant pressure; details: 101 kPa, Liquid
[3] = xn = mol fraction of the nth substance listed; details: 101 kPa, Liquid
[4] = molar heat capacity at constant pressure; xn = mol fraction of the nth substance listed; details: 101 kPa, Liquid

CCCC[n+]1cccc(C)c1.F[B-](F)(F)F [1-butyl-3-methylpyridinium tetrafluoroborate]
Details | mass density, [1] [kg/m3] | molar heat capacity at constant pressure, [2] [J/K/mol]
293.15 K | 1188.6 | 385.8
298.15 K | 1185.2 | 387.7
303.15 K | 1181.7 | 390.1
308.15 K | 1178.3 | 392.8
313.15 K | 1174.9 | 395.9
318.15 K | 1171.6 | 399.3

CCCC[n+]1cccc(C)c1.F[B-](F)(F)F [1-butyl-3-methylpyridinium tetrafluoroborate] + C[N+](=O)[O-]
x1 = 1
Details | mass density, [3] [kg/m3] | molar heat capacity at constant pressure, [4] [J/K/mol]
293.15 K | 1188.6 | 385.8
298.15 K | 1185.2 | 387.7
303.15 K | 1181.7 | 390.1
308.15 K | 1178.3 | 392.8
313.15 K | 1174.9 | 395.9
318.15 K | 1171.6 | 399.3

CCO [ethanol]
Details | mass density, [1] [kg/m3] | molar heat capacity at constant pressure, [2] [J/K/mol]
293.15 K | 789.6 | 111.3
298.15 K | 785.3 | 113.3
303.15 K | 781 | 115.3
308.15 K | 776.7 | 117.5
313.15 K | 772.3 | 119.7
318.15 K | 767.8 | 122.1

CCO [ethanol] + CCCC[n+]1cccc(C)c1.F[B-](F)(F)F
x2 = 0
Details | mass density, [3] [kg/m3] | molar heat capacity at constant pressure, [4] [J/K/mol]
293.15 K | 789.6 | 111.3
298.15 K | 785.3 | 113.3
303.15 K | 781 | 115.3
308.15 K | 776.7 | 117.5
313.15 K | 772.3 | 119.7
318.15 K | 767.8 | 122.1

C[N+](=O)[O-] [nitromethane]
Details | mass density, [1] [kg/m3] | molar heat capacity at constant pressure, [2] [J/K/mol]
293.15 K | 1140.2 | 106.6
298.15 K | 1133.4 | 106.9
303.15 K | 1126.6 | 107.3
308.15 K | 1119.7 | 107.7
313.15 K | 1112.9 | 108.2
318.15 K | 1106 | 108.6

O [water] + CCCC[n+]1cccc(C)c1.F[B-](F)(F)F
x2 = 0
Details | mass density, 308.15 K [kg/m3] | molar heat capacity at constant pressure, 293.15 K [J/K/mol] | molar heat capacity at constant pressure, 298.15 K [J/K/mol] | molar heat capacity at constant pressure, 303.15 K [J/K/mol] | molar heat capacity at constant pressure, 308.15 K [J/K/mol] | molar heat capacity at constant pressure, 313.15 K [J/K/mol] | molar heat capacity at constant pressure, 318.15 K [J/K/mol]
[3] | 994.1 | – | – | – | – | – | –
[4] | – | 75.4 | 75.3 | 75.3 | 75.2 | 75.2 | 75.3
